Data: the NIST ThermoML archive (doi:10.1016/j.fluid.2016.07.034)

Assay: molar heat capacity at constant pressure
Conditions: Liquid, Flow calorimetry

O [water]
Conditions	molar heat capacity at constant pressure [J/K/mol]
304.24 K, 100 kPa	75.43
304.28 K, 3030 kPa	74.86
304.36 K, 11970 kPa	74.97
304.37 K, 6180 kPa	75.16
304.4 K, 9010 kPa	74.98
323.09 K, 90 kPa	75.69
323.13 K, 3180 kPa	75.16
323.15 K, 6040 kPa	74.94
323.17 K, 9000 kPa	74.7
323.19 K, 11970 kPa	74.58
371.11 K, 990 kPa	76.21
371.19 K, 2980 kPa	75.91
371.24 K, 5990 kPa	75.65
371.27 K, 9030 kPa	75.39
371.3 K, 12040 kPa	75.11
424.19 K, 12070 kPa	77.23
424.24 K, 1390 kPa	77.92
424.29 K, 3030 kPa	77.82
424.35 K, 6180 kPa	76.99
424.43 K, 9080 kPa	76.79
424.52 K, 15080 kPa	76.51
473.34 K, 2710 kPa	80.78
473.45 K, 6220 kPa	80.48
473.51 K, 9230 kPa	80.25
473.56 K, 12190 kPa	80.08
473.61 K, 15070 kPa	79.73
526 K, 6030 kPa	87.65
526.12 K, 9260 kPa	87.01
526.17 K, 12250 kPa	86.6
526.23 K, 15120 kPa	86.16
577.06 K, 9960 kPa	104.34
577.11 K, 11800 kPa	102.67
577.14 K, 13510 kPa	102.15
577.18 K, 15110 kPa	100.84
